In PubChem BioAssay (NCI):
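Each compound was tested at five concentrations against cells in 96-well plates for 48 hours. The concentration for 50% growth inhibition is given as GI50. TGI is the concentration that stops growth completely.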

Key:
Assay in all cases: inhibition of tumour cell growth, NCI panel, 48 h
SN12C renal = system: SN12C renal
SF-539 CNS = system: SF-539 CNS
HOP-92 NSCLC = system: HOP-92 NSCLC
CAKI-1 renal = system: CAKI-1 renal
HCC-2998 colon = system: HCC-2998 colon
SK-MEL-28 melanoma = system: SK-MEL-28 melanoma
M14 melanoma = system: M14 melanoma
HCT-15 colon = system: HCT-15 colon
OVCAR-5 ovarian = system: OVCAR-5 ovarian
HL-60(TB) leukemia = system: HL-60(TB) leukemia

Row | SMILES | GI50 (SN12C renal) | TGI (SN12C renal) | GI50 (SF-539 CNS) | TGI (SF-539 CNS) | GI50 (HOP-92 NSCLC) | TGI (HOP-92 NSCLC) | GI50 (CAKI-1 renal) | TGI (CAKI-1 renal) | GI50 (HCC-2998 colon) | TGI (HCC-2998 colon) | GI50 (SK-MEL-28 melanoma) | TGI (SK-MEL-28 melanoma) | GI50 (M14 melanoma) | TGI (M14 melanoma) | GI50 (HCT-15 colon) | TGI (HCT-15 colon) | GI50 (OVCAR-5 ovarian) | TGI (OVCAR-5 ovarian) | GI50 (HL-60(TB) leukemia) | TGI (HL-60(TB) leukemia)
1 | COc1cc2c3c(n(CCCNC(=O)OCC4c5ccccc5-c5ccccc54)c(=O)c2cc1OC)-c1cc2c(cc1/C3=C\CCNC(=O)OCC1c3ccccc3-c3ccccc31)OCO2 | > 50 µM | > 50 µM | 35.7 µM | > 50 µM | > 40.7 µM | > 50 µM | > 13.8 µM | > 46.1 µM | > 50 µM | > 50 µM | > 50 µM | > 50 µM | > 25.3 µM | > 50 µM | > 50 µM | > 50 µM | > 19.6 µM | > 45 µM | 18.1 µM | > 50 µM
2 | COc1ccc(Cn2cc3c(c2-c2ccccc2)CC(C)(C)c2cnoc2-3)cc1 | 4.46 µM | > 100 µM | 2.18 µM | 6.02 µM | 1.96 µM | 32.7 µM | 1.22 µM | > 100 µM | 2.91 µM | > 100 µM | 6.86 µM | > 100 µM | 2.03 µM | > 100 µM | 1.02 µM | > 100 µM | 4.39 µM | > 100 µM | 0.82 µM | 4.29 µM
3 | CC(C)(C)c1cc(C(C)(C)C)cc(S(=O)(=O)Nc2cc3ccccc3cc2C(=O)NCCN)c1 | 1.86 µM | 3.6 µM | 1.77 µM | 3.28 µM | 1.73 µM | 3.24 µM | 2.75 µM | 9.33 µM | 1.75 µM | 3.24 µM | 1.87 µM | 3.64 µM | 1.71 µM | 3.42 µM | 1.64 µM | 3.04 µM | 1.94 µM | 4.49 µM | 2.04 µM | 4.22 µM
4 | CN(C)C(=O)c1cc2cnc(Nc3ccc(-c4csc5c(=S)cc(N6CCOCC6)oc45)cc3)nc2n1C1CCCC1 | 0.33 µM | > 50 µM | 0.517 µM | 2.03 µM | 0.115 µM | – | 0.368 µM | > 13.3 µM | 0.932 µM | > 50 µM | 0.752 µM | > 50 µM | 0.838 µM | > 50 µM | 0.344 µM | > 50 µM | 0.485 µM | > 50 µM | 0.264 µM | 1.97 µM
5 | CCOC(=O)CC1(C(=O)OCC)c2[nH]c3ccccc3c2CCN1Cc1ccccc1 (stereo not drawn) | – | 27.8 µM | – | 35.8 µM | – | 32.2 µM | – | 99.2 µM | – | 28.9 µM | – | 39.4 µM | – | 35.8 µM | – | > 100 µM | – | 39.5 µM | – | 62.5 µM
6 | NCC1Nc2ccccc2[C@@H](O)C1O (stereo partly drawn) | – | > 100 µM | – | > 100 µM | – | > 100 µM | – | > 100 µM | – | > 100 µM | – | > 100 µM | – | > 100 µM | – | > 100 µM | – | > 100 µM | – | > 100 µM
7 | COC(=O)C1=CNC=C(C(=O)OC)C1C1=CC(=O)C(C)=CC1=O | 13 µM | 25.8 µM | 14.9 µM | 29.6 µM | 4.65 µM | 15.6 µM | 6.71 µM | 19.4 µM | 14.9 µM | 28.1 µM | 24.3 µM | > 59.6 µM | 15.2 µM | 29.1 µM | 17 µM | 32.6 µM | 17.7 µM | 31.7 µM | 1.71 µM | 5.88 µM
8 | N=C1C(c2nc3ccccc3s2)=C(O)CN1c1cc(C(F)(F)F)ccc1Cl | 15.5 µM | 69.6 µM | 10 µM | 52.9 µM | 7.69 µM | 98.1 µM | 4.7 µM | 40.4 µM | 2.73 µM | 16.3 µM | 69 µM | > 100 µM | 3.21 µM | 11.1 µM | 3.44 µM | > 100 µM | 70.2 µM | > 100 µM | 5.75 µM | 30.2 µM
9 | Cc1ccc(C2=C(c3ccccc3)C(Br)(c3ccc(C)cc3)C(c3ccccc3)=C2c2ccc(C)cc2)cc1 | – | > 100 µM | – | > 100 µM | – | > 100 µM | – | > 100 µM | – | > 100 µM | – | > 100 µM | – | > 100 µM | – | > 100 µM | – | > 100 µM | – | > 100 µM
10 | COc1cc(C=C2C(=O)NC(=O)NC2=O)cc(OC)c1OC | – | > 100 µM | – | > 100 µM | – | > 100 µM | – | > 100 µM | – | > 100 µM | – | > 100 µM | – | > 100 µM | – | > 100 µM | – | > 100 µM | – | > 100 µM
11 | CN1c2ccc(Cl)cc2C(=O)NC1c1ccc([N+](=O)[O-])s1 (stereo not drawn) | – | 30.9 µM | – | 37.5 µM | – | 33.1 µM | – | 40.7 µM | – | 31.1 µM | – | 43.7 µM | – | 32.5 µM | – | 35.9 µM | – | 54.1 µM | – | 49.3 µM
12 | Cc1nc(N)sc1C(=O)/C=C\c1ccc2c(c1)OCO2 | – | > 100 µM | – | > 100 µM | – | > 100 µM | – | > 100 µM | – | > 100 µM | – | > 100 µM | – | > 100 µM | – | > 100 µM | – | > 100 µM | – | > 100 µM
13 | COc1cc(-c2ccc3c(c2)NC(=O)/C3=C\c2ccc[nH]2)ccc1O | 0.0423 µM | > 50 µM | 0.0156 µM | 0.236 µM | > 24.7 µM | > 50 µM | 0.255 µM | > 12.9 µM | 0.0981 µM | 1.84 µM | 2.19 µM | > 50 µM | 0.0176 µM | > 50 µM | 0.0228 µM | > 50 µM | 0.799 µM | > 50 µM | 0.0155 µM | –
14 | OC[C@H]1CCCC1O (stereo partly drawn) | – | > 100 µM | – | > 100 µM | – | > 100 µM | – | > 100 µM | – | > 100 µM | – | > 100 µM | – | > 100 µM | – | > 100 µM | – | > 100 µM | – | > 100 µM
15 | CCC[CH2][Sn]1([CH2]CCC)[O]CC(CN2CCCC2)[O]1 (stereo not drawn) | 16.7 µM | 31 µM | 16.9 µM | 38.9 µM | 8.45 µM | 23.8 µM | 5.6 µM | 24.5 µM | 14.3 µM | 28.5 µM | 19 µM | 34.9 µM | 16.9 µM | 32.5 µM | 15.3 µM | 29.2 µM | 12.9 µM | 27.7 µM | 3.87 µM | 15.2 µM
